The results in this text go back to ChEMBL document CHEMBL1151861, “Synthesis of novel nitric oxide (NO)-releasing esters of timolol” (Bioorg Med Chem Lett, 2009).

Data set [1] can be described thus: Chemical stability in pH 5.7 buffer at room temperature after 1 week. The data set is classed as physicochemical. The following applies: read-out: Stability.
Data set [2] in a line: Chemical stability in pH 5.7 buffer at room temperature after 4 weeks. Format: physicochemical. To be noted: read-out: Stability.
Data set [3] is described as follows: Chemical stability in pH 5.7 buffer at room temperature after 1 day. The data set is classed as physicochemical. The following applies: for remaining at 24 h: pH 5.7 buffer, pH 5.7, read-out: Stability.
A short description of data set [4]: Stability in rabbit corneal homogenate at 37 degC assessed as half life of timolol release. Format: ADME, tissue-based, Oryctolagus cuniculus, Cornea. To be noted: in vitro.
The nature of data set [5]: Chemical stability in pH 5.7 buffer at room temperature after 12 weeks. To be noted: read-out: Stability. Format: physicochemical.
The nature of data set [6]: Chemical stability in pH 5.7 buffer at room temperature after 8 weeks. Format: physicochemical. To be noted: read-out: Stability.
A short description of data set [7]: Vasodilation activity in rabbit aortic rings assessed as relaxation of 3 uM methoxamine-induced contraction in absence of guanylate cyclase inhibitor 1H-[1,2,4]oxadiazolo[4,3-a]quinoxalin-1-one. The following applies: Oryctolagus cuniculus, Aorta. The data set is classed as functional, tissue-based.
Data set [8] can be described thus: Vasodilation activity in rabbit aortic rings assessed as relaxation of 3 uM methoxamine-induced contraction in presence of 10 uM guanylate cyclase inhibitor 1H-[1,2,4]oxadiazolo[4,3-a]quinoxalin-1-one. The following applies: Oryctolagus cuniculus, Aorta. The data set is classed as functional, tissue-based.

In the case of `COc1cc(OCCO[N+](=O)[O-])ccc1C(=O)O[C@@H](CNC(C)(C)C)COc1nsnc1N1CCOCC1`, the remaining at 168 h in data set [1] turned out to be 96.3%. In data set [2], the remaining at 672 h is 84.4%. Besides, the remaining at 24 h in data set [3] came to 98.6%.
In the case of `COc1ccc(CO[N+](=O)[O-])cc1C(=O)O[C@@H](CNC(C)(C)C)COc1nsnc1N1CCOCC1.O=C(O)/C=C\C(=O)O`, the Stability entry in data set [3] (buffer, pH 5.7, 24 h) is “Unstable”. For the same compound, the t1/2 in data set [4] came out at 4.62 h.
`CC(C)(C)NC[C@@H](COc1nsnc1N1CCOCC1)OC(=O)c1ccccc1OCCO[N+](=O)[O-].O=C(O)/C=C\C(=O)O`: the remaining at 168 h in data set [1] is 82.5%. Besides, in data set [3], the remaining at 24 h is 96.5%. Moreover, the t1/2 in data set [4] was 4.3 h.
For the compound `COc1cccc(OCCO[N+](=O)[O-])c1C(=O)O[C@@H](CNC(C)(C)C)COc1nsnc1N1CCOCC1.O=C(O)/C=C\C(=O)O`, the remaining at 2016 h in data set [5] was determined as 98.3%. For the same compound, the remaining at 1344 h in data set [6] was 98.3%. Moreover, the remaining at 168 h in data set [1] came to 99.3%. Moreover, the remaining at 672 h in data set [2] worked out at 98.3%. Besides, the remaining at 24 h in data set [3] amounted to 99.8%. For the same compound, the t1/2 in data set [4] is more than 23.33 h.
For `COc1cc(COCCO[N+](=O)[O-])ccc1C(=O)O[C@@H](CNC(C)(C)C)COc1nsnc1N1CCOCC1`, the remaining at 168 h in data set [1] stood at 94.9%. Also, the remaining at 24 h in data set [3] came out at 96.7%.
As for `COc1cc(COC(=O)CCCCCO[N+](=O)[O-])cc(OC)c1C(=O)O[C@@H](CNC(C)(C)C)COc1nsnc1N1CCOCC1.O=C(O)/C=C\C(=O)O`, in data set [5], the remaining at 2016 h was determined as 93.2%. In addition, in data set [6], the remaining at 1344 h stood at 96.8%. Moreover, the remaining at 168 h in data set [1] was determined as 100%. In addition, the remaining at 672 h in data set [2] worked out at 98%. Moreover, the remaining at 24 h in data set [3] is 100%. Further, the t1/2 in data set [4] is more than 23.33 h.
Broadly, the EC50 is the concentration that produces a half-maximal response. For the compound `COc1cc(COC(=O)COCCOCCO[N+](=O)[O-])c(C(=O)O[C@@H](CNC(C)(C)C)COc2nsnc2N2CCOCC2)c(OC)c1.O=C(O)/C=C\C(=O)O`, the EC50 stood at 15.5 µM in data set [7] and 32.7 µM in data set [8]. The remaining at 168 h in data set [1] was 93%. In data set [3], the remaining at 24 h came out at 98.8%. In data set [4], the t1/2 was 0.167 h.
In the case of `COc1cccc(C(=O)O[C@@H](CNC(C)(C)C)COc2nsnc2N2CCOCC2)c1OCCO[N+](=O)[O-].O=C(O)/C=C\C(=O)O`, the remaining at 168 h in data set [1] was found to be 72.1%. For the same compound, the remaining at 24 h in data set [3] is 96%. Also, the t1/2 in data set [4] was more than 23.33 h.
As for `COc1cc(COC(=O)CCCO[N+](=O)[O-])c(C(=O)O[C@@H](CNC(C)(C)C)COc2nsnc2N2CCOCC2)c(OC)c1.O=C(O)/C=C\C(=O)O`, in data set [1], the remaining at 168 h was 96.5%. The remaining at 672 h in data set [2] was 90.6%. Also, the remaining at 24 h in data set [3] stood at 96.5%. In addition, the t1/2 in data set [4] worked out at 0.2 h.
Take `COc1cc(COC(=O)C(C)(C)CO[N+](=O)[O-])c(C(=O)O[C@@H](CNC(C)(C)C)COc2nsnc2N2CCOCC2)c(OC)c1.O=C(O)/C=C\C(=O)O`: in data set [5], the remaining at 2016 h was determined as 93.2%. Moreover, the remaining at 1344 h in data set [6] turned out to be 94.9%. In addition, the remaining at 168 h in data set [1] came to 99.1%. In addition, the remaining at 672 h in data set [2] came out at 94.7%. In addition, the remaining at 24 h in data set [3] was found to be 98.4%. Further, in data set [4], the t1/2 came to 2 h.
For the compound `COc1cc(COC(=O)CCOCC(CO[N+](=O)[O-])O[N+](=O)[O-])c(C(=O)O[C@@H](CNC(C)(C)C)COc2nsnc2N2CCOCC2)c(OC)c1.O=C(O)/C=C\C(=O)O` (some centres not stated), in data set [5], the remaining at 2016 h is 86%. Further, the remaining at 1344 h in data set [6] was found to be 91.7%. Also, in data set [1], the remaining at 168 h turned out to be 96.7%. Further, the remaining at 672 h in data set [2] was 95.8%. In data set [3], the remaining at 24 h was 97.3%. Besides, the t1/2 in data set [4] is 0.667 h.
For `COc1cc(OCCO[N+](=O)[O-])cc(C)c1C(=O)O[C@@H](CNC(C)(C)C)COc1nsnc1N1CCOCC1.O=C(O)/C=C\C(=O)O`, the remaining at 2016 h in data set [5] stood at 98.5%. Besides, the remaining at 1344 h in data set [6] is 99.6%. In addition, in data set [1], the remaining at 168 h was determined as 101%. In data set [2], the remaining at 672 h is 100%. Besides, in data set [3], the remaining at 24 h was determined as 101%. Also, in data set [4], the t1/2 is more than 23.33 h.
Take `CC(C)(C)NC[C@@H](COc1nsnc1N1CCOCC1)OC(=O)c1ccc(OCCO[N+](=O)[O-])cc1OCCO[N+](=O)[O-]`: the remaining at 168 h in data set [1] came out at 84.2%. Besides, the remaining at 24 h in data set [3] is 97.9%.
On to `COc1cc(COC(=O)CCCCCO[N+](=O)[O-])c(C(=O)O[C@@H](CNC(C)(C)C)COc2nsnc2N2CCOCC2)c(OC)c1.O=C(O)/C=C\C(=O)O`, for which the concentration for a half-maximal effect (EC50) stood at 6.7 µM in data set [7] and 56.3 µM in data set [8]. Moreover, the remaining at 1344 h in data set [6] was determined as 92.8%. Besides, the remaining at 168 h in data set [1] was determined as 99.6%. Moreover, in data set [2], the remaining at 672 h stood at 97.7%. In addition, in data set [3], the remaining at 24 h came to 99.6%. The t1/2 in data set [4] is 0.167 h.
With `CC(C)(C)NC[C@@H](COc1nsnc1N1CCOCC1)OC(=O)c1ccccc1`, in data set [1], the remaining at 168 h was 74.8%. In data set [3], the remaining at 24 h turned out to be 96%.
Regarding `O=[N+]([O-])O[C@@H]1CO[C@H]2[C@@H]1OC[C@@H]2O` [ISOSORBIDE MONONITRATE], the results for the EC50 in data set [7] and in data set [8] were 9.6 µM and more than 100 µM, respectively.
Take `CC(C)(C)NC[C@H](O)COc1nsnc1N1CCOCC1` [TIMOLOL]: the results for the concentration giving a half-maximal response (EC50) in data set [7] and in data set [8] were 28.8 µM and 36.5 µM, respectively.
